According to patent publication US20100048594A1, “USE OF CYTOHESIN INHIBITORS FOR CHEMICALLY INDUCING LONGEVITY” (RHEINISCHE FRIEDRICH-WILHELMS UNIVERSITAT, priority 2006, published 2010):

Test system: FoxO1A
Assay: Insulin-dependent phosphorylation of FoxO1A in HepG2 cells
Assay type: cell-based, human
Conditions: HepG2 cells, 5, 10, 15 μM compound, 100 nM insulin; based upon concentration

COc1nc(-c2ccc3c(c2)OCO3)n(-c2ccc(NC(=O)CSc3ccccc3)cc2)n1 [Compound (9)]
insulin-dependent phosphorylation of FoxO1A: inhibited
